Key:
OCT2 = target: T1, OCT2 (Homo sapiens, UniProt O15244)
T1 sequence (O15244 1-555): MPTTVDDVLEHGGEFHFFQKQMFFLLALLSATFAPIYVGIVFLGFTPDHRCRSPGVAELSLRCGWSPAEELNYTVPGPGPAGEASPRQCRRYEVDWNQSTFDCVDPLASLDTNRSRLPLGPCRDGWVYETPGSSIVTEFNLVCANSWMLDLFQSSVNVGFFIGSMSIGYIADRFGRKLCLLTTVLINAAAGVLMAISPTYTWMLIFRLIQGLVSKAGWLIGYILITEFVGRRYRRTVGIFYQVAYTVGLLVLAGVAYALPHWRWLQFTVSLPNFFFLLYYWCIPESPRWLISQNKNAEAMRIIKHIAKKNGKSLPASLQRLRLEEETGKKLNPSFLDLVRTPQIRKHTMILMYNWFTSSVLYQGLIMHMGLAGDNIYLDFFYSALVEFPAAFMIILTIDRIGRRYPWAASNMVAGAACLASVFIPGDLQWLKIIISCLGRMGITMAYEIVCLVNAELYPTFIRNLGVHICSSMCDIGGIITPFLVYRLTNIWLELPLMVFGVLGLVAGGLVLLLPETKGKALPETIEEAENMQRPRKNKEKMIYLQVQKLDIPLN

MATE1 = target: T2, MATE1 (Homo sapiens, UniProt Q96FL8)
T2 sequence (Q96FL8 1-570): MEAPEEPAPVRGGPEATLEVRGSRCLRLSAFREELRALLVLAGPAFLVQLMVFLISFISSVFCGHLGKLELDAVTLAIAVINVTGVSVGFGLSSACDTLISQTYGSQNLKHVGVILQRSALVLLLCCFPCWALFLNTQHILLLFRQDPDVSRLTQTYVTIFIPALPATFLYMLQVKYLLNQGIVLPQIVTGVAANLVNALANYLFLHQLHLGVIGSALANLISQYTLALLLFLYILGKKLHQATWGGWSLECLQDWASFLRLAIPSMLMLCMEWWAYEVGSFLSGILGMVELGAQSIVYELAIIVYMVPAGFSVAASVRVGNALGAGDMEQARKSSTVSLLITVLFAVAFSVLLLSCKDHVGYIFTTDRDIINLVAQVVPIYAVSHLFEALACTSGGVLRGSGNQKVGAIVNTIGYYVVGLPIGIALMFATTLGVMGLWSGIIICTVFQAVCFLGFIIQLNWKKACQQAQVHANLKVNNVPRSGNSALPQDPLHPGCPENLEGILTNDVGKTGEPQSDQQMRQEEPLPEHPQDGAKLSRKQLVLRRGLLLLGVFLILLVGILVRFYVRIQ

[1] = Cushing's syndrome patients, reportedly; cited from earlier work

| Structure (SMILES) | IC50 (OCT2) [nM] | IC50 (MATE1) [nM] | patients in whom hypercortisolism is normalized [1] |
| --- | --- | --- | --- |
| CC(=O)N1CCN(c2ccc(OC[C@@H]3CO[C@@](Cn4ccnc4)(c4ccc(Cl)cc4Cl)O3)cc2)CC1 (relative stereo) [Levoketoconazole, 2S,4R cis-1-acetyl-4-[4-[[2-(2,4-dichlorophenyl)-2-(1H-imidazol-1-ylmethyl)-1,3-dioxolan-4-yl]methoxyl]phenyl]piperazine] | 218 | 248 | – |
| CC(=O)N1CCN(c2ccc(OCC3COC(Cn4ccnc4)(c4ccc(Cl)cc4Cl)O3)cc2)CC1 (racemic) [Ketoconazole, ketoconazole] | 1520 | 279 | 30-70% |

— US11278547B2 (Strongbridge Dublin Limited, priority 2019, dated 2022)
